Results: patent US20210322417A1, “GASTRIC CANCER TREATMENTS” (The Jackson Laboratory, priority 2018, published 2021)

What was measured:
PTEN null OE19 cells [1] = experiment: CellTiter-Glo cell viability assay, PTEN null OE19; assay type: cell-based, human; details: 6 days
Description: (§3) Then N87 and OE19 cells were infected with the corresponding viruses and the Lapatinib resistance was examined by treating the cells with indicated doses of Lapatinib for 6 days. Cell viability assay was performed as described below at the end of treatment.
(§4) For the cell viability assays, 4,000 cells/each well in a 96-well plate were treated with indicated drugs for 6 days and cell viabilities were measured using the CellTiter-Glo® luminescent cell viability assay kit according to the manufacturer's instructions (Promega). The luminescence intensity was measured using a multi-label plate reader (SpectraMax M5, Molecular Devices). The cell viabilities were calculated as relative values compared to the untreated controls.

[2] = system: OE19 cells transduced with non-targeting gRNA; experiment: CellTiter-Glo cell viability assay, control OE19; assay type: cell-based, human; details: indicated doses of the agent in combination with 0.05 μM Lapatinib, 6 days
Description: Viral particles were generated as described above.

CSK null OE19 cells [3] = experiment: CellTiter-Glo cell viability assay, CSK null OE19; assay type: cell-based, human; details: 6 days
Description: as §3, §4

[4] = system: OE19 cells transduced with non-targeting gRNA; experiment: Caspase-Glo 3/7 apoptosis assay, control cells; assay type: cell-based, human; details: Lapatinib 48 h treatment
Description: (§1) We examined apoptosis induced by Lapatinib treatment in CSK or PTEN null cells as well as the control cells by measuring caspase-3/7 activation (Caspase-Glo assay).
(§2) Caspase activity was detected by using Caspase-Glo 3/7 assay kit (Promega). Briefly. The GC cells were seeded in 96-well white luminometer assay plates at a density of 4,000 cells per well and incubated at 37° C. Cells were treated with Lapatinib for 48 h, 100 ul caspase 3/7 reagents were added to each well and incubated for 1 h on rotary shaker at room temperature. The luminescence intensity was measured using a multi-label plate reader (SpectraMax M5, Molecular Devices).

PTEN null OE19 cells [5] = experiment: Caspase-Glo 3/7 apoptosis assay, PTEN null cells; assay type: cell-based, human; details: Lapatinib 48 h treatment
Description: as §1, §2

N87-PTEN−/− tumors = experiment: Xenograft tumor model, N87-PTEN−/−; details: lapatinib dosing test, three weeks of treatment, compared to N87-WT
N87-CSK−/− tumors = details: lapatinib dosing test, three weeks of treatment; N87-CSK−/− xenograft, compared to N87-WT
CSK null OE19 cells [6] = experiment: Caspase-Glo 3/7 apoptosis assay, CSK null cells; assay type: cell-based, human; details: Lapatinib 48 h treatment
Description: as §1, §2

HER2-amplified GC = details: HER2-positive GC patients, clinical trial data; cited from earlier work
N87-WT tumors = experiment: Xenograft tumor model, N87-WT; assay type: in vivo, mice; details: lapatinib dosing test, three weeks of treatment
Description: Tumors were induced by injecting N87-WT. […] Drug treatment was initiated when tumors reached a volume of 150-250 mm^3. Mice were randomly divided into seven treatment groups including 8-10 mice in each group: 1) vehicle only, 2) lapatinib only, 3) lapatinib+trametinib, 4) lapatinib+copanlisib, 5) trametinib+copanlisib, 6) lapatinib+trametinib+copanlisib, and 7) 5-FU.

[7] = 0.1 μM of the agent in combination with 0.05 μM Lapatinib
[8] = indicated doses of the agent in combination with 0.05 μM Lapatinib
[9] = AZD0530 at highest concentration (1 μM) in combination with 0.05 μM Lapatinib

COc1c(OCCCN2CCOCC2)ccc2c1N=C(NC(=O)c1cnc(N)nc1)N1CCN=C21 [Copanlisib]
effect on cell growth (PTEN null OE19 cells [1]; [7]): significantly inhibited the cell growth, but not completely | effect on cell growth/viability (PTEN null OE19 cells [1]; [8]): inhibited the cell growth | effect on cell growth [2]: inhibited the cell growth | effect on cell growth (CSK null OE19 cells [3]; [7]): significantly inhibited the cell growth, but not completely | effect on cell growth/viability (CSK null OE19 cells [3]; [8]): inhibited the cell growth

CN1CCN(CCOc2cc(OC3CCOCC3)c3c(Nc4c(Cl)ccc5c4OCO5)ncnc3c2)CC1 [AZD0530, Saracatinib]
cells survived (PTEN null OE19 cells [1]; [9]): 42.49±2.54% | cells survived (CSK null OE19 cells [3]; [9]): 9.15±0.88%

CS(=O)(=O)CCNCc1ccc(-c2ccc3ncnc(Nc4ccc(OCc5cccc(F)c5)c(Cl)c4)c3c2)o1 [Lapatinib]
fold of caspase-3/7 activity compared with vehicle treated cells [4]: 3.79±0.16 fold | fold of caspase-3/7 activity compared with vehicle treated cells (PTEN null OE19 cells [5]): 1.50±0.10 fold | tumor sensitivity to treatment (N87-PTEN−/− tumors): resistant to lapatinib treatment | tumor sensitivity to treatment (N87-CSK−/− tumors): relatively insensitive to lapatinib | effect on cell growth (PTEN null OE19 cells [1]; 0.05 μM Lapatinib alone): could not inhibit the growth | fold of caspase-3/7 activity compared with vehicle treated cells (CSK null OE19 cells [6]): 1.55±0.16 fold | survival (HER2-amplified GC): failed to improve survival | tumor sensitivity to treatment (N87-WT tumors): sensitive to lapatinib treatment | effect on cell growth (CSK null OE19 cells [3]; 0.05 μM Lapatinib alone): could not inhibit the growth
